Laboratory results from paper PMC9218685, “Legume Plant Peptides as Sources of Novel Antimicrobial Molecules Against Human Pathogens” (Frontiers in Molecular Biosciences, 2022).
≈ marks a conversion by molar mass, not a printed value. Entries after “also recorded” stand apart in the source; their conditions may differ. Peptide text beside a SMILES is read from it.

How the values were obtained:
[1] = test system: Lambda DNA/HindIII marker; test: Gel retardation assay (DNA aggregation); format: binding; settings: 100 ng DNA, 5 or 10 µM peptide in water, 30 min at room temperature, 1% agarose gel
Method: Interactions of peptides with DNA was visualized with gel retardation assay ([Hsu et al., 2005]). 100 ng Lambda DNA/HindIII marker (ThermoFisher Scientific) was incubated with 0, 5 or 10 µM synthetic NCRs or NCR derivatives in water for 30 min at room temperature and then loaded into 1% agarose gel. Electrophoresis of DNA fragments separated the mobile HindIII-digested DNA fragments while the aggregated DNA remained in the loading wells.
FIGURE 6 Aggregation of DNA by NCR peptides. Lambda HindIII digested DNA was incubated without (0) or with NCR peptides at 5 or 10 μM concentration.

[2] = test system: E. coli, S. enteritidis, P. aeruginosa, L. monocytogenes, S. aureus, E. faecalis, K. pneumoniae and A. baumannii; test: Antimicrobial activity assay, spectrum over the eight tested pathogenic bacteria; format: cell-based; settings: 3 h treatment of ~10^7 log phase bacteria, peptides 25 to 0.8 µM; active = MBC ≤25 µM
Summary of the method: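 Log-phase bacteria (~10^7) treated 3 h with NCR peptides in potassium-phosphate buffer pH 7.4, two-fold dilutions from 25 µM to 0.8 µM. MBC is the lowest concentration completely eliminating viable bacteria. Strains: E. faecalis ATCC 29212, S. aureus HNCMO112011, L. monocytogenes ATCC 19111, P. aeruginosa ATCC 27853, E. coli ATCC 8739, S. enterica ATCC 13076, K. pneumoniae NCTC 13440, A. baumannii ATCC 17978.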

[3] = test system: C. albicans; test: Scanning electron microscopy of cell morphology; format: cell-based, Candida albicans; settings: 30 min treatment, peptide 1.6, 3.125 or 25 µM as in Figure 4 legend
Method: (§1) A. baumannii and C. albicans were grown and treated the same way as for the membrane permeability assay. Cells were then fixed with 2.5% (v/v) glutaraldehyde in phosphate buffered saline (PBS, pH 7.4). 5 μl of the above bacterial and yeast suspensions were spotted on a silicon disk coated with 0.01% Poly-L-Lysine. The filters were washed twice with PBS and gradually dehydrated with ethanol series (30, 50, 70, 80%, and three times 100% ethanol, each for minimum 30 min). The samples were dried with a critical point dryer (K850: Quorum Technologies Ltd.), followed by 12 nm gold coating and observed under a JEOL JSM-7100F/LV scanning electron microscope.

[4] = test system: A. baumannii; test: Scanning electron microscopy of cell morphology; format: cell-based, Acinetobacter baumannii; settings: 30 min treatment, peptide 1.6 or 3.125 µM as in Figure 3 legend
Method: as §1
FIGURE 3 Viability, membrane permeability and morphology of A. baumannii cells after NCR treatment (A–L) SYTO9/PI staining observed with confocal microscope, (M–X) Cell morphology observed with SEM. (A,M) untreated control, (B,N) CaNCR13, 3.125 µM, (C,O) CaNCR63, 3.125 µM, (D,P) CaNCR63_1-20, 3.125 µM, (E,Q) CaNCR63_15-34, 3.125 µM, (F,R) MsNCR443, 3.125 µM, (G,S) MsNCR463_16-35, 1.6 µM, (H,T) MsNCR463_17-30, 3.125 µM, (I,U) PsNCR349, 1.6 µM, (J,V) PsNCR349_26-50, 3.125 µM, (K,W) PsNCR349_31-50, 3.125 µM, (L,X) PsNCR352, 1.6 µM.

[5] = test system: Acinetobacter baumannii (ATCC 17978); test: microbe, parasite or virus in culture; format: cell-based; settings: for MBC Acinetobacter baumannii: ATCC 17978, 3 h
Summary of the method: (§2)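 MBC read as lowest peptide concentration giving no viable bacteria; ~10^7 log-phase cells, PPB pH 7.4, 3 h treatment, 2-fold dilutions from 25 µM.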

[6] = test system: Pseudomonas aeruginosa (ATCC 27853); format: cell-based; settings: ATCC 27853, 3 h
Summary of the method: as §2

[7] = test system: Klebsiella pneumoniae (NCTC 13440); format: cell-based; settings: NCTC 13440, 3 h
Summary of the method: as §2

[8] = test system: Salmonella enterica (ATCC 13076); format: cell-based; settings: ATCC 13076, 3 h
Summary of the method: as §2

[9] = test system: Staphylococcus aureus (HNCMO112011); format: cell-based; settings: HNCMO112011, 3 h
Summary of the method: as §2

[10] = test system: Escherichia coli (ATCC 8739); format: cell-based; settings: ATCC 8739, 3 h
Summary of the method: as §2

[11] = test system: Listeria monocytogenes (ATCC 19111); format: cell-based; settings: ATCC 19111, 3 h
Summary of the method: as §2

[12] = test system: Enterococcus faecalis (ATCC 29212); format: cell-based; settings: for Ability to kill E. faecalis: 3 h, ~10^7 log phase bacteria, peptides ≤25 µM; for MBC Enterococcus faecalis: ATCC 29212, 3 h
Summary of the method: as §2

Structure (SMILES) | Aggregation of HindIII-digested λ DNA (DNA retained in loading wells) [1] | Antibacterial spectrum over the eight tested bacterial strains [2] | Morphology of C. albicans cells by SEM [3] | Morphology of A. baumannii cells by SEM [4] | MBC ([5]; ~10^7 log phase bacteria, Potassium-Phosphate Buffer pH 7.4, 3 h treatment, two-fold dilution series, lowest concentration completely eliminating viable bacteria, read-out: MBC, minimal bactericidal concentration against A. baumannii) | MBC Acinetobacter baumannii [5] | MBC Pseudomonas aeruginosa [6] | MBC Klebsiella pneumoniae [7] | MBC Salmonella enterica [8] | MBC Staphylococcus aureus [9] | MBC Escherichia coli [10] | MBC Listeria monocytogenes [11] | Ability to kill E. faecalis [12] | MBC Enterococcus faecalis [12]
CC[C@H](C)[C@H](NC(=O)[C@H](CCCNC(=N)N)NC(=O)[C@@H](NC(=O)[C@H](CS)NC(=O)[C@H](CCCCN)NC(=O)[C@H](CS)NC(=O)[C@H](Cc1ccccc1)NC(=O)CNC(=O)[C@H](CC(N)=O)NC(=O)[C@@H](NC(=O)[C@H](CS)NC(=O)[C@H](CCCCN)NC(=O)[C@@H]1CCCN1C(=O)[C@@H](NC(=O)[C@H](CCCCN)NC(=O)[C@@H]1CCCN1C(=O)[C@H](CCCCN)NC(=O)[C@H](CCCNC(=N)N)NC(=O)[C@H](CS)NC(=O)[C@H](C)NC(=O)[C@H](Cc1ccccc1)NC(=O)[C@H](CCCCN)NC(=O)[C@H](CCCCN)NC(=O)[C@H](CS)NC(=O)[C@H](CC(=O)O)NC(=O)[C@H](CCCCN)NC(=O)[C@H](CC(=O)O)NC(=O)[C@H](CO)NC(=O)[C@H](CCC(N)=O)NC(=O)[C@H](CS)NC(=O)[C@@H]1CCCN1C(=O)[C@@H](N)CCCCN)C(C)C)[C@@H](C)CC)C(C)C)C(=O)N[C@@H](Cc1c[nH]c2ccccc12)C(=O)O [CaNCR13] (H-KPCQSDKDCKKFACRKPKVPKCINGFCKCVRIW-OH; N-terminus assumed) | did not | broad-spectrum activity | aggregation of shrunken cells in a spider net like matrix | Only dead cells were visible | – | – | – | – | – | – | – | – | – | –
CC[C@H](C)[C@H](NC(=O)[C@H](CCCNC(=N)N)NC(=O)[C@H](CCCNC(=N)N)NC(=O)[C@H](CS)NC(=O)[C@H](CCCNC(=N)N)NC(=O)[C@H](CCCNC(=N)N)NC(=O)[C@H](CCC(=O)O)NC(=O)[C@@H](NC(=O)[C@H](CS)NC(=O)[C@H](CC(C)C)NC(=O)[C@@H](NC(=O)[C@H](CCCCN)NC(=O)[C@H](Cc1ccc(O)cc1)NC(=O)[C@@H](NC(=O)[C@H](CCCCN)NC(=O)[C@H](CO)NC(=O)[C@H](CS)NC(=O)[C@H](CCCNC(=N)N)NC(=O)[C@H](Cc1ccccc1)NC(=O)[C@H](CCCNC(=N)N)NC(=O)[C@H](CC(C)C)NC(=O)[C@H](CS)NC(=O)[C@H](CC(=O)O)NC(=O)[C@H](CO)NC(=O)[C@H](CC(=O)O)NC(=O)[C@H](CC(N)=O)NC(=O)[C@H](CC(C)C)NC(=O)[C@H](CS)NC(=O)[C@H](CCCNC(=N)N)NC(=O)[C@H](CC(C)C)NC(=O)CNC(=O)[C@H](CO)NC(=O)[C@@H]1CCCN1)[C@@H](C)CC)C(C)C)[C@@H](C)CC)C(=O)N[C@@H](CCCCN)C(=O)N[C@@H](CCSC)C(=O)N[C@@H](Cc1c[nH]cn1)C(=O)O [PsNCR352] | did not | broad-spectrum activity | Flattening of cells; also recorded: aggregation of shrunken cells in a spider net like matrix | cell form was preserved | 6.25 µM (≈ 27.3 µg/mL) | – | – | – | – | – | – | – | – | –
CC[C@H](C)[C@H](N)C(=O)N[C@@H](Cc1ccc(O)cc1)C(=O)N[C@@H](Cc1ccccc1)C(=O)N[C@@H](CCCNC(=N)N)C(=O)N[C@@H](CCCCN)C(=O)N1CCC[C@H]1C(=O)N1CCC[C@H]1C(=O)N1CCC[C@H]1C(=O)N[C@@H](CS)C(=O)N[C@H](C(=O)N[C@H](C(=O)N[C@@H](CC(=O)O)C(=O)N[C@@H](CCCCN)C(=O)N[C@@H](CC(=O)O)C(=O)N[C@@H](CS)C(=O)N1CCC[C@H]1C(=O)N[C@@H](CCC(N)=O)C(=O)N[C@@H](CCSC)C(=O)N[C@@H](CCCCN)C(=O)N[C@H](C(=O)N[C@@H](CC(N)=O)C(=O)N[C@@H](CC(N)=O)C(=O)N[C@H](C(=O)N[C@@H](CCCNC(=N)N)C(=O)N[C@@H](CS)C(=O)N[C@@H](CCCNC(=N)N)C(=O)N[C@@H](CCCCN)C(=O)NCC(=O)N[C@@H](Cc1ccccc1)C(=O)N[C@@H](CS)C(=O)N[C@H](C(=O)N[C@@H](CCC(N)=O)C(=O)N[C@H](C(=O)N[C@@H](Cc1c[nH]cn1)C(=O)N[C@@H](CCCCN)C(=O)N[C@@H](Cc1ccccc1)C(=O)N[C@H](C(=O)N1CCC[C@H]1C(=O)O)[C@@H](C)O)[C@@H](C)CC)[C@@H](C)CC)C(C)C)[C@@H](C)CC)[C@@H](C)O)[C@@H](C)CC [NCR358] (H-IYFRKPPPCITDKDCPQMKINNVRCRKGFCIQIHKFTP-OH; N-terminus assumed) | – | capable of killing all tested bacteria; also recorded: active against all the eight tested pathogens | – | – | – | 3.125 µM (≈ 14.2 µg/mL) | 3.125 µM (≈ 14.2 µg/mL) | 25 µM (≈ 113 µg/mL) | 3.125 µM (≈ 14.2 µg/mL) | 3.125 µM (≈ 14.2 µg/mL) | 1.6 µM (≈ 7.26 µg/mL) | 3.125 µM (≈ 14.2 µg/mL) | able to kill | 6.25 µM (≈ 28.4 µg/mL)
CC[C@H](C)[C@H](NC(=O)[C@H](CCC(N)=O)NC(=O)[C@H](CCCCN)NC(=O)[C@H](CCCNC(=N)N)NC(=O)[C@@H](NC(=O)[C@H](Cc1ccccc1)NC(=O)[C@H](Cc1ccccc1)NC(=O)[C@H](Cc1ccc(O)cc1)NC(=O)[C@H](Cc1c[nH]cn1)NC(=O)[C@H](CS)NC(=O)[C@H](Cc1ccccc1)NC(=O)[C@H](CCCCN)NC(=O)CNC(=O)[C@@H](NC(=O)[C@H](CS)NC(=O)[C@H](CCSC)NC(=O)[C@H](CCSC)NC(=O)[C@@H](NC(=O)[C@@H](NC(=O)[C@@H]1CCCN1C(=O)[C@H](CCCCN)NC(=O)[C@@H](NC(=O)[C@@H](NC(=O)[C@H](CCCCN)NC(=O)[C@@H]1CCCN1C(=O)[C@H](CS)NC(=O)[C@H](CC(=O)O)NC(=O)[C@H](CC(=O)O)NC(=O)[C@@H](NC(=O)[C@@H](NC(=O)[C@H](C)NC(=O)[C@H](CS)NC(=O)[C@H](CCCNC(=N)N)NC(=O)[C@@H](NC(=O)[C@H](CC(=O)O)NC(=O)[C@H](CC(C)C)NC(=O)[C@H](CCCCN)NC(=O)[C@@H](N)CCC(=O)O)[C@@H](C)CC)[C@@H](C)O)C(C)C)C(C)C)[C@@H](C)O)C(C)C)C(C)C)[C@@H](C)O)C(C)C)C(=O)N[C@@H](CC(C)C)C(=O)O [NCR073] (H-EKLDIRCATVDDCPKVTKPVVMMCTGKFCHYFFVRKQIL-OH; N-terminus assumed) | – | capable of killing all tested bacteria; also recorded: active against all the eight tested pathogens | – | – | – | 1.6 µM (≈ 7.3 µg/mL) | 6.25 µM (≈ 28.5 µg/mL) | 6.25 µM (≈ 28.5 µg/mL) | 6.25 µM (≈ 28.5 µg/mL) | 6.25 µM (≈ 28.5 µg/mL) | 3.125 µM (≈ 14.3 µg/mL) | 6.25 µM (≈ 28.5 µg/mL) | able to kill | 6.25 µM (≈ 28.5 µg/mL)
